In patent publication US8440710B2, “HSL inhibitors useful in the treatment of diabetes” (Hoffmann-La Roche Inc., priority 2009, dated 2013):

Biological target: T1, human HSL (Homo sapiens, UniProt Q05469)
T1 construct: generate a full length human HSL ORF with a 3′-His6 tag; made in house; host or cells: High 5 insect cells (baculovirus, pFast-BAC)
T1 sequence (Q05469 1-1076): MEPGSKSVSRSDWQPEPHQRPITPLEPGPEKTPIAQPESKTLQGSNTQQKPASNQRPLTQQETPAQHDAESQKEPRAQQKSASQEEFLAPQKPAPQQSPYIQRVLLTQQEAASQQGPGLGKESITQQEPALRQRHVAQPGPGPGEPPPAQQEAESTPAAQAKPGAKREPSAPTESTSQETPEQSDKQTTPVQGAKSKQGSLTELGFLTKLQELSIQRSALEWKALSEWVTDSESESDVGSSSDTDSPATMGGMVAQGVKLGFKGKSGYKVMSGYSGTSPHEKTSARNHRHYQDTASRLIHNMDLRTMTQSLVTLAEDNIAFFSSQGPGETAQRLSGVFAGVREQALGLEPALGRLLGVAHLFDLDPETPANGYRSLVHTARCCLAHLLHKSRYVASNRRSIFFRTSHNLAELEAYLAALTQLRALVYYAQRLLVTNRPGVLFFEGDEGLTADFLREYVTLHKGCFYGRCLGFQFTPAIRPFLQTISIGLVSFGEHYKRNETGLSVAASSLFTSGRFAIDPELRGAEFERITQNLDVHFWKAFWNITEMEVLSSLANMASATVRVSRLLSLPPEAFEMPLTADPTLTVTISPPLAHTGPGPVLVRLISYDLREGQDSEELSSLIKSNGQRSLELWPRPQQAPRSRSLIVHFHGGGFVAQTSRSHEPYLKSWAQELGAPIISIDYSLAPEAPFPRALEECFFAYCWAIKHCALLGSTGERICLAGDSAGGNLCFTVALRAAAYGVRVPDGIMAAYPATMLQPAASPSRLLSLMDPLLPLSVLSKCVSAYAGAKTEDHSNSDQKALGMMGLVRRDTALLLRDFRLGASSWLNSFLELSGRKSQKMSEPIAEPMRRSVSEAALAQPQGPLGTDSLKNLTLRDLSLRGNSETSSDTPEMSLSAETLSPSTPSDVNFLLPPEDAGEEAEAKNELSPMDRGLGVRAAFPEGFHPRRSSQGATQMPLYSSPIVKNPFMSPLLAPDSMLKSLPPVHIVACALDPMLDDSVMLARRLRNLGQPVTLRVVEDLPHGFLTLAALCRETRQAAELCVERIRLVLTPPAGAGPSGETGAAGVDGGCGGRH
Test: Human Hormone-Sensitive Lipase (HSL) enzyme inhibition assay (colorimetric, DMPT substrate)
Format: biochemical
Settings: human full length HSL-His6, 2,3-dimercapto-1-propanol tributyrate substrate, 37° C. 20 minutes, absorbance at 405 nm; read-out: HSL hum IC50
In short: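 Full-length human HSL with C-terminal His6, expressed in baculovirus-infected High 5 cells and Ni-NTA purified, was added (15 ug/ml stock) to 1.5 mM DMPT in 100 mM MOPS pH 7.2, 0.2 mg/ml fatty acid-free BSA containing compound. After 20 min at 37 °C, DTNB with SDS/Triton X-100 was added; A405 read after 15 min at RT.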

SMILES | IC50 [nM]
CC(C)(C)c1ccc(N2CCC3(CCC(O)(COc4ccccn4)CC3)C2=O)cc1 (stereo not drawn) [Example 352, (5α,8α)-2-(4-tert-Butyl-phenyl)-8-hydroxy-8-(pyridin-2-yloxymethyl)-2-aza-spiro[4.5]decan-1-one] | 30
CC(C)(C)c1ccc(N2CC[C@]3(CC[C@@](O)(COc4cccnc4)CC3)C2=O)cc1 [Example 354, (5α,8α)-2-(4-tert-Butyl-phenyl)-8-hydroxy-8-(pyridin-3-yloxymethyl)-2-aza-spiro[4.5]decan-1-one] | 50
O=C1CCCN1C[C@]1(O)CC[C@]2(CCN(c3ccc(OCC(F)(F)F)cc3)C2=O)CC1 [Example 367, (5α,8α)-8-Hydroxy-8-(2-oxo-pyrrolidin-1-ylmethyl)-2-[4-(2,2,2-trifluoro-ethoxy)-phenyl]-2-aza-spiro[4.5]decan-1-one] | 80
O=C1CCCCN1C[C@]1(O)CC[C@]2(CCN(c3ccc(OCC(F)(F)F)cc3)C2=O)CC1 [Example 368, (5α,8α)-8-Hydroxy-8-(2-oxo-piperidin-1-ylmethyl)-2-[4-(2,2,2-trifluoro-ethoxy)-phenyl]-2-aza-spiro[4.5]decan-1-one] | 80
O=c1ccccn1C[C@]1(O)CC[C@]2(CCN(c3ccc(OCC(F)(F)F)cc3)C2=O)CC1 [Example 369, (5α,8α)-8-Hydroxy-8-(2-oxo-2H-pyridin-1-ylmethyl)-2-[4-(2,2,2-trifluoro-ethoxy)-phenyl]-2-aza-spiro[4.5]decan-1-one] | 20
O=c1ccccn1C[C@]1(O)CC[C@@]2(CCN(c3ccc(OCC(F)(F)F)cc3)C2=O)CC1 [Example 370, (5α,8β)-8-Hydroxy-8-(2-oxo-2H-pyridin-1-ylmethyl)-2-[4-(2,2,2-trifluoro-ethoxy)-phenyl]-2-aza-spiro[4.5]decan-1-one] | 80
O=C1N(c2ccc(OCC(F)(F)F)cc2)CC[C@]12CC[C@@](O)(COc1ccccn1)CC2 [Example 371, (5α,8α)-8-Hydroxy-8-(pyridin-2-yloxymethyl)-2-[4-(2,2,2-trifluoro-ethoxy)-phenyl]-2-aza-spiro[4.5]decan-1-one] | 20
CO[C@H](c1ccc(N2CC[C@]3(CC[C@@](O)(COCC(F)(F)F)CC3)C2=O)cc1)C(F)(F)F [Example 372, (5α,8α)-8-Hydroxy-8-(2,2,2-trifluoro-ethoxymethyl)-2-[4-((R)-2,2,2-trifluoro-1-methoxy-ethyl)-phenyl]-2-aza-spiro[4.5]decan-1-one] | 17
CCc1ccc(CCN2CC[C@]3(CC[C@@](O)(COC)CC3)C2=O)cc1 [Example 373, (5α,8α)-2-[2-(4-Ethyl-phenyl)-ethyl]-8-hydroxy-8-methoxymethyl-2-aza-spiro[4.5]decan-1-one] | 70
CC(C)Oc1ccc(N2CC[C@]3(CC[C@@](O)(c4cnn[nH]4)CC3)C2=O)cc1 [Example 374, (5α,8α)-8-hydroxy-2-(4-isopropoxyphenyl)-8-(1H-1,2,3-triazol-4-yl)-2-azaspiro[4.5]decan-1-one] | 400
CCc1ccc(CCN2CC[C@]3(CC[C@@](O)(COC(C)C)CC3)C2=O)cc1 [Example 375, (5α,8α)-2-[2-(4-Ethyl-phenyl)-ethyl]-8-hydroxy-8-isopropoxymethyl-2-aza-spiro[4.5]decan-1-one] | 14.2

Next, values leading:

IC50 [nM] | SMILES
10 | CC(C)(C)c1ccc(N2CC[C@]3(CC[C@@](O)(COCC(F)(F)F)CC3)C2=O)cc1 [Example 347, (5α,8α)-2-(4-tert-Butyl-phenyl)-8-hydroxy-8-(2,2,2-trifluoro-ethoxymethyl)-2-aza-spiro[4.5]decan-1-one]
10 | CCOC[C@]1(O)CC[C@]2(CCN(c3ccc(C(C)(C)C)cc3)C2=O)CC1 [Example 348, (5α,8α)-2-(4-tert-Butyl-phenyl)-8-ethoxymethyl-8-hydroxy-2-aza-spiro[4.5]decan-1-one]
10 | CC(C)OC[C@]1(O)CC[C@]2(CCN(c3ccc(C(C)(C)C)cc3)C2=O)CC1 [Example 349, (5α,8α)-2-(4-tert-Butyl-phenyl)-8-hydroxy-8-isopropoxymethyl-2-aza-spiro[4.5]decan-1-one]
10 | CC(C)(C)c1ccc(N2CC[C@]3(CC[C@@](O)(CN4CCCC4=O)CC3)C2=O)cc1 [Example 350, (5α,8α)-2-(4-tert-Butyl-phenyl)-8-hydroxy-8-(2-oxo-pyrrolidin-1-ylmethyl)-2-aza-spiro[4.5]decan-1-one]
10 | CC(C)(C)c1ccc(N2CC[C@]3(CC[C@@](O)(CN4CCCCC4=O)CC3)C2=O)cc1 [Example 351, (5α,8α)-2-(4-tert-Butyl-phenyl)-8-hydroxy-8-(2-oxo-piperidin-1-ylmethyl)-2-aza-spiro[4.5]decan-1-one]
10 | CC(C)(C)c1ccc(N2CCC3(CCC(O)(Cn4ccccc4=O)CC3)C2=O)cc1 (stereo not drawn) [Example 353, (5α,8α)-2-(4-tert-Butyl-phenyl)-8-hydroxy-8-(2-oxo-2H-pyridin-1-ylmethyl)-2-aza-spiro[4.5]decan-1-one]
50 | CC(C)C(O)[C@H]1CC[C@@]2(CCN(c3ccc(C(C)(C)C)cc3)C2=O)CC1 (stereo partly drawn) [Example 355, (5α,8β)-2-(4-tert-Butyl-phenyl)-8-(1-hydroxy-2-methyl-propyl)-2-aza-spiro[4.5]decan-1-one]
100 | CC(C)C(O)[C@H]1CC[C@]2(CCN(c3ccc(C(C)(C)C)cc3)C2=O)CC1 (stereo partly drawn) [Example 356]
50 | CC(O)C1CCC2(CC1)CCN(c1ccc(C(C)(C)C)cc1)C2=O (stereo not drawn) [Example 357, (5α,8β)-2-(4-tert-Butyl-phenyl)-8-(1-hydroxy-ethyl)-2-aza-spiro[4.5]decan-1-one]
50 | CC(O)C1CCC2(CC1)CCN(c1ccc(C(C)(C)C)cc1)C2=O (stereo not drawn) [Example 358, (5α,8α)-2-(4-tert-Butyl-phenyl)-8-(1-hydroxy-ethyl)-2-aza-spiro[4.5]decan-1-one]
30 | CCC(O)[C@H]1CC[C@@]2(CCN(c3ccc(C(C)(C)C)cc3)C2=O)CC1 (stereo partly drawn) [Example 359, (5α,8β)-2-(4-tert-Butyl-phenyl)-8-(1-hydroxy-propyl)-2-aza-spiro[4.5]decan-1-one]
10 | CC(C)(C)c1ccc(N2CCC3(CCC(C(O)(O)C(F)(F)F)CC3)C2=O)cc1 (stereo not drawn) [Example 362, 2-(4-tert-Butyl-phenyl)-8-(2,2,2-trifluoro-1,1-dihydroxy-ethyl)-2-aza-spiro[4.5]decan-1-one]
30 | CC(C)(C)c1ccc(N2CC[C@]3(CC[C@@H](C(O)c4ccn[nH]4)CC3)C2=O)cc1 (stereo partly drawn) [Example 363, (5α,8β)-2-(4-tert-Butyl-phenyl)-8-[hydroxy-(2H-pyrazol-3-yl)-methyl]-2-aza-spiro[4.5]decan-1-one]
10 | CC(C)(C)c1ccc(N2CC[C@]3(CC[C@@H](Cc4ccn[nH]4)CC3)C2=O)cc1 [Example 364, (5α,8β)-2-(4-tert-Butyl-phenyl)-8-(2H-pyrazol-3-ylmethyl)-2-aza-spiro[4.5]decan-1-one]
50 | CCC(O)[C@H]1CC[C@@]2(CCN(c3ccc(O[C@H](C)C(F)(F)F)cc3)C2=O)CC1 (stereo partly drawn) [Example 365, (5α,8β)-8-(1-Hydroxy-propyl)-2-[4-((R)-2,2,2-trifluoro-1-methyl-ethoxy)-phenyl]-2-aza-spiro[4.5]decan-1-one]
290 | CCC(O)[C@H]1CC[C@]2(CCN(c3ccc(O[C@H](C)C(F)(F)F)cc3)C2=O)CC1 (stereo partly drawn) [Example 366, (5α,8α)-8-(1-Hydroxy-propyl)-2-[4-((R)-2,2,2-trifluoro-1-methyl-ethoxy)-phenyl]-2-aza-spiro[4.5]decan-1-one]
